Here are results for seven compounds from PMC8713283 (Journal of Medicinal Chemistry, 2021).

Data set [1] is described as follows: Log D(dec/w) shake flask partition coefficient. Format: physicochemical. The note with it: 1,9-decadiene and PBS pH 7.4 shake flask partition coefficient; for logD hydrocarbon water: 1,9-decadiene/PBS.
The subject of data set [2] is P-gp (human MDR1). Briefly: in vitro. The note with it: dog; for Papp A→B at 5 µM / Papp B→A at 5 µM: MDCK-MDR1; for efflux ratio at 5 µM: MDCK-MDR1, Efflux ratio B-A/A-B, MDCK-MDR1, 5 µM, N = 2.
For data set [3] the following is noted: human.
Wherever Plasma stability is given: time not given here.

In data set [1], `COCC(=O)NCCCCCC(=O)N[C@H](C(=O)N1C[C@H](O)C[C@H]1C(=O)NCc1ccc(-c2scnc2C)cc1)C(C)(C)C` [Compound 1, (2S,4R)-4-Hydroxy-1-((S)-2-(6-(2-methoxyacetamido)hexanamido)-3,3-dimethylbutanoyl)-N-(4-(4-methylthiazol-5-yl)benzyl)pyrrolidine-2-carboxamide] yielded a logD hydrocarbon water of -2.2. For the same compound, in data set [2], the Papp A→B (in general, how fast a substance crosses the layer from the apical side) at 5 µM turned out to be 0.5 ×10⁻⁶ cm/s; the Papp B→A (in general, the apparent permeability from the basolateral to the apical side of a cell layer) at 5 µM worked out at 1.7 ×10⁻⁶ cm/s; the efflux ratio (commonly a quotient of directional permeabilities that is used to spot active efflux) at 5 µM came to 3. The Plasma stability in data set [3] is listed as 126 ± 4%.

For `CCCC(=O)NCCCCCC(=O)N[C@H](C(=O)N1C[C@H](O)C[C@H]1C(=O)NCc1ccc(-c2scnc2C)cc1)C(C)(C)C` [Compound 2, (2S,4R)-1-((S)-2-(6-Butyramidohexanamido)-3,3-dimethylbutanoyl)-4-hydroxy-N-(4-(4-methylthiazol-5-yl)benzyl)pyrrolidine-2-carboxamide], the logD hydrocarbon water in data set [1] was -2.2. Further, in data set [2], the Papp A→B at 5 µM was found to be 0.4 ×10⁻⁶ cm/s, the Papp B→A at 5 µM was 2.9 ×10⁻⁶ cm/s and the efflux ratio at 5 µM amounted to 7. In data set [3], this compound gave a Plasma stability of 83 ± 5%.

In data set [1], `Cc1ncsc1-c1ccc(CNC(=O)[C@@H]2C[C@@H](O)CN2C(=O)[C@@H](NC(=O)CCCCCNC(=O)C2CCCCC2)C(C)(C)C)cc1` [Compound 4, (2S,4R)-1-((S)-2-(6-(Cyclohexanecarboxamido)hexanamido)-3,3-dimethylbutanoyl)-4-hydroxy-N-(4-(4-methylthiazol-5-yl)benzyl)pyrrolidine-2-carboxamide] registered a logD hydrocarbon water of -1.4. For the same compound, in data set [2], the Papp A→B at 5 µM came out at 0.3 ×10⁻⁶ cm/s, the apparent permeability from basolateral to apical (Papp B→A) at 5 µM is 10.3 ×10⁻⁶ cm/s and the efflux ratio at 5 µM stood at 33. Further, the Plasma stability in data set [3] is 168 ± 20%.

The compound `Cc1ncsc1-c1ccc(CNC(=O)[C@@H]2C[C@@H](O)CN2C(=O)[C@@H](NC(=O)CCCCCNC(=O)CC23CC4CC(CC(C4)C2)C3)C(C)(C)C)cc1` [Compound 5, (2S,4R)-1-((S)-2-(6-(2-(Adamantan-1-yl)acetamido)hexanamido)-3,3-dimethylbutanoyl)-4-hydroxy-N-(4-(4-methylthiazol-5-yl)benzyl)pyrrolidine-2-carboxamide] displayed a logD hydrocarbon water in data set [1] of -0.2. In data set [2], the Papp A→B at 5 µM was determined as 0.2 ×10⁻⁶ cm/s, the Papp B→A at 5 µM stood at 23.7 ×10⁻⁶ cm/s and the efflux ratio at 5 µM amounted to 158. The compound further returned a Plasma stability in data set [3] of 74 ± 8%.

`CCCCOc1ccc(-c2ccc(C(=O)OCCCCCC(=O)N[C@H](C(=O)N3C[C@H](O)C[C@H]3C(=O)NCc3ccc(-c4scnc4C)cc3)C(C)(C)C)cc2)cc1` [Compound 14, 6-(((S)-1-((2S,4R)-4-Hydroxy-2-((4-(4-methylthiazol-5-yl)benzyl)carbamoyl)pyrrolidin-1-yl)-3,3-dimethyl-1-oxobutan-2-yl)amino)-6-oxohexyl 4′-butoxy-[1,1′-biphenyl]-4-carboxylate]: the “LogD (dec/w)” value in data set [1] was “BLD^h”. In addition, the Plasma stability in data set [3] amounted to 119 ± 28%.

As for `C[C@H]1O[C@@H](O[C@H]2[C@@H](O)C[C@H](O[C@H]3[C@@H](O)C[C@H](O[C@H]4CC[C@@]5(C)[C@H](CC[C@@H]6[C@@H]5C[C@@H](O)[C@]5(C)[C@@H](C7=CC(=O)OC7)CC[C@]65O)C4)O[C@@H]3C)O[C@@H]2C)C[C@H](O)[C@@H]1O` [Digoxin, reference compound], in data set [2], the Papp A→B at 5 µM was 0.8 ×10⁻⁶ cm/s, the Papp B→A at 5 µM came to 21.5 ×10⁻⁶ cm/s and the efflux ratio at 5 µM was determined as 26.3.

For `CC(C)NCC(O)COc1cccc2ccccc12` (stereo not shown) [Propranolol, reference compound], in data set [2], the Papp A→B at 5 µM came to 49.1 ×10⁻⁶ cm/s, the Papp B→A at 5 µM came to 41.6 ×10⁻⁶ cm/s and the efflux ratio at 5 µM turned out to be 0.8.
